We go through one molecule from patent US11285136B2, “Nanoparticles for controlled release of Sorafenib and Sorafenib derivatives” (DISTRETTO TECNOLOGICO SICILIA MICRO NANO SISTEMI S.C.A.R.L., priority 2017, dated 2022).

A short description of series [1]: Body weight and mobility of treated xenograft mice. The series is classed as in vivo, nude mice. The note with it: 10 mg/kg daily (6 days/week), 17 days, FIG. 5B. As for the experimental part:
(§1) Male nude mice (fox1 nu/nu) of 4 weeks of life were purchased at Envigo (Udine, Italy) and left to acclimatize for 1 week. Hep3B cells (10×10^6 in 0.2 ml PBS), undergoing logarithmic growth, were inoculated in the right flank of the animals. When the tumors were palpable (about 300 mm^3), the mice were randomly divided into four groups of five animals each, with the various tumor volumes equally distributed between the four groups. Each group was treated for 17 days as indicated below.

Series [2] in a line: In vitro release of Sorafenib, dialysis tube method. Particulars: SGF, SIF and PBS, 37° C. The format is physicochemical. As for the experimental part:
During the experiment, the temperature was maintained at 37° C. in a thermostatic stirrer and with stirring of 100 rpm. At scheduled time intervals, 1 ml aliquots were taken from the external medium and replaced with an equal volume of fresh receiving medium. The released Sorafenib was quantified by HPLC analysis. Each in vitro release experiment was repeated in triplicate.
A control experiment was also carried out to determine the dissolution of the free drug: an appropriate amount of Sorafenib was dispersed in the receiving medium, in order to have a final concentration of Sorafenib equal to that present in the nanoparticles, the dispersion was then introduced into a dialysis tube (cut-off 12000-14000 Da) which was immersed in a container containing the receiving medium. The amount of Sorafenib in the receiving medium was detected by HPLC analysis.
The amount of released Sorafenib was expressed as a percentage ratio between the released drug weight and the total amount of Sorafenib loaded into the nanoparticles. […] The cumulative release of Sorafenib in 24 hours was about 63% in SIF (panel B) and about 55% in PBS (panel C).

Series [3] is described as follows: Biodistribution of Sorafenib in tissues of treated mice. The note with it: compared with Sorafenib PBB, p<0.01, FIG. 6.
Experimental: The lyophilized nanoparticle samples were resuspended and sonicated as reported in cell viability assays. Tumor volumes and body weight were recorded twice a week as previously described (Cusimano et al., Cytotoxic activity of the novel small molecule AKT inhibitor SC66 in hepatocellular carcinoma cells. Oncotarget 2015, 6, 1707-1722). The mice were sacrificed by cervical dislocation when the tumor mass exceeded 10% of the body weight of the animals, or when the tumor mass appeared ulcerated or other morbid conditions were found, in accordance with the institutional guidelines and in accordance with the national law (Legislative Decree No. 26 4-3-2014) and international laws and policies (ECC Council Directive 86/609, OJ L358.1, Dec. 12, 1987). […] At the end of the trial, tumors, liver, kidneys, lungs and spleen were collected from each animal. Half of each tumor, or organ, was frozen in liquid nitrogen and stored at −80° C. for biodistribution analyzes, while the other half was fixated in formalin and used for immunohistochemistry analysis.
Sorafenib was extracted from the tissues of the treated animals following the procedure described in Craparo E F et al. Galactosylated polymeric carriers for liver targeting of Sorafenib. […]
Another series deals with Hep3B. The experiment in a line: Cell viability assay (CellTiter) on Hep3B cells. The format is cell-based, human. The note with it: 72 hours. As for the experimental part: (§2) The human hepatocellular carcinoma cell lines, HepG2 and Hep3B, were obtained from the American Type Culture Collection (ATCC). Cells were kept in 5% CO2 and grown in Roswell Park Memorial Institute (RPMI) medium (SIGMA, Milan, Italy), supplemented with 10% (v/v) fetal bovine serum (FBS) (Gibco, Life Technologies, Monza MB, Italy), 2 mM L-glutamine, 100 U/ml of penicillin-streptomycin and 1 mM of sodium pyruvate (SIGMA, Milan, Italy). Cell lines were regularly checked for possible mycoplasma contamination.
(§3) The latter were resuspended in sterile conditions in sterile H2O, sonicated for 20 min in a water sonicator, and diluted with a complete RPMI volume (2×). At the end of the treatment, cell viability assays were performed using the OneSolution aqueous CellTiter kit (Promega Corporation, Madison, Wis., USA). The percentage of cell viability was calculated with reference to the absorbance measured in the control cells. The experiments were performed in triplicate and the values expressed as mean±SD of three independent experiments.

For series [4] the following is noted: oral tablets, strong first-pass effect; cited from earlier work.
The conditions of series [5]: cited from earlier work.
Series [6] has as its system Hep3B hepatocellular carcinoma. The experiment in a line: Hep3B xenograft in nude mice, therapeutic efficacy. The format is in vivo. Particulars: 10 mg/kg daily (6 days/week), 17 days, FIG. 5A. As for the experimental part:
as §1
Group 1: daily treatment (6 days/week) by intraperitoneal (IP) injection with 10 mg/kg of Sorafenib tosylate resuspended in DMSO and further diluted in a 25% solution of ethanol (DMSO-EtOH).
Group 2: carrier only (DMSO-EtOH).
Group 4: daily treatment (6 days/week) with 10 mg/kg of empty PBB nanoparticles resuspended in RPMI.
To quantify the Ki-67 cell proliferation marker expression, the ImmunoRatio® software (http://jvsmicroscope.uta.fi/immunoratio/) was used which, using a color deconvolution algorithm, calculates the percentage of positively marked area (area stained with diaminobenzidine) towards the total nuclear area. The hematoxylin stains were also acquired to analyze the neo-vascularization of the tumor, using the Leica DMR microscope equipped with a Leica DFC 320 digital camera.

Another series has as its system HepG2. Nature of the series: Cell viability assay (CellTiter) on HepG2 cells. The series is classed as cell-based, human. As for the experimental part:
as §2, §3

“Also recorded” adds a separate entry of the source.

The term IC50 denotes the concentration at which inhibition is half-maximal.

Consider `CNC(=O)c1cc(Oc2ccc(NC(=O)Nc3ccc(Cl)c(C(F)(F)F)c3)cc2)ccn1` [Sorafenib, 4-[4-[[4-chloro-3-(trifluoromethyl)phenyl]carbamoylamino]phenoxy]-N-methyl-pyridine-2-carboxamide], for which the body weight result in series [1] is on record as “did not show a significant loss of body weight”. For the same molecule, in series [2], the “dissolution of free drug” value is “almost complete within two hours”. The “amount of Sorafenib detected in the lungs” value in series [3] is given as “significantly higher”. The cell viability result is on record as “strongly decreased in a dose-dependent manner” in the series on Hep3B (0.6-10 μM, FIG. 3) and “strongly decreased in a dose-dependent manner” in the series with HepG2 (HepG2, 0.6-10 μM, 72 hours, FIG. 3). Further, the IC50 turned out to be 3.5 ± 0.5 µM with Hep3B (Homo sapiens, mean ± DS) and 5.5 ± 1 µM in the series on HepG2 (Homo sapiens, HepG2, 72 hours, mean ± DS). In series [4], the bioavailability entry was “low”. In addition, the solubility in water result in series [5] is reported as “slightly soluble; also recorded: poorly soluble”. In series [6], the tumor growth entry is “reduced tumor growth compared to the carrier alone, although this difference was not significant”.
